Experimental data: ChEMBL document CHEMBL5247669, “Synthesis, modeling, and biological evaluation of anti-tubulin indole-substituted furanones” (Bioorg Med Chem Lett, 2023)
Calls of active or inactive are those of the source. No cut-off for these calls is given here.

Assays:
U-937 = experiment: Anticancer activity against human U-937 cells assessed as reduction in cell viability by MTT assay; assay type: functional, cell-based
MCF7 = experiment: Growth inhibition of human MCF7 cells by MTT assay; assay type: functional
MDA-MB-231 = experiment: Growth inhibition of human MDA-MB-231 cells by MTT assay; assay type: functional
Hs-578T = experiment: Growth inhibition of human Hs-578T cells by MTT assay; assay type: functional
BT-549 = experiment: Growth inhibition of human BT-549 cells by MTT assay; assay type: functional
T47D = experiment: Growth inhibition of human T47D cells by MTT assay; assay type: functional
MDA-MB-468 = experiment: Growth inhibition of human MDA-MB-468 cells by MTT assay; assay type: functional
COLO 205 = experiment: Growth inhibition of human COLO 205 cells by MTT assay; assay type: functional
HCC 2998 = experiment: Growth inhibition of human HCC 2998 cells by MTT assay; assay type: functional
HCT-116 = experiment: Growth inhibition of human HCT-116 cells by MTT assay; assay type: functional
HCT-15 = experiment: Growth inhibition of human HCT-15 cells by MTT assay; assay type: functional
HT-29 = experiment: Growth inhibition of human HT-29 cells by MTT assay; assay type: functional
KM12 = experiment: Growth inhibition of human KM12 cells by MTT assay; assay type: functional
SW-620 = experiment: Growth inhibition of human SW-620 cells by MTT assay; assay type: functional
SF-268 = experiment: Growth inhibition of human SF-268 cells by MTT assay; assay type: functional
SF-295 = experiment: Growth inhibition of human SF-295 cells by MTT assay; assay type: functional
SF-539 = experiment: Growth inhibition of human SF-539 cells by MTT assay; assay type: functional
SNB-19 = experiment: Growth inhibition of human SNB-19 cells by MTT assay; assay type: functional
SNB-75 = experiment: Growth inhibition of human SNB-75 cells by MTT assay; assay type: functional
U-251 = experiment: Growth inhibition of human U-251 cells by MTT assay; assay type: functional
HL-60 = experiment: Growth inhibition of human HL-60 cells by MTT assay; assay type: functional
K562 = experiment: Growth inhibition of human K562 cells by MTT assay; assay type: functional
MOLT-4 = experiment: Growth inhibition of human MOLT-4 cells by MTT assay; assay type: functional
SR = experiment: Growth inhibition of human SR cells by MTT assay; assay type: functional
CCRF-CEM = experiment: Growth inhibition of human CCRF-CEM cells by MTT assay; assay type: functional
RPMI-8226 = experiment: Growth inhibition of human RPMI-8226 cells by MTT assay; assay type: functional
LOX IMVI = experiment: Growth inhibition of human LOX IMVI cells by MTT assay; assay type: functional
Malme-3M = experiment: Growth inhibition of human Malme-3M cells by MTT assay; assay type: functional
M14 = experiment: Growth inhibition of human M14 cells by MTT assay; assay type: functional
MDA-MB-435 = experiment: Growth inhibition of human MDA-MB-435 cells by MTT assay; assay type: functional
SK-MEL-2 = experiment: Growth inhibition of human SK-MEL-2 cells by MTT assay; assay type: functional
SK-MEL-28 = experiment: Growth inhibition of human SK-MEL-28 cells by MTT assay; assay type: functional
SK-MEL-5 = experiment: Growth inhibition of human SK-MEL-5 cells by MTT assay; assay type: functional
UACC-257 = experiment: Growth inhibition of human UACC-257 cells by MTT assay; assay type: functional
UACC-62 = experiment: Growth inhibition of human UACC-62 cells by MTT assay; assay type: functional
A549 = experiment: Growth inhibition of human A549 cells by MTT assay; assay type: functional
EKVX = experiment: Growth inhibition of human EKVX cells by MTT assay; assay type: functional
HOP-62 = experiment: Growth inhibition of human HOP-62 cells by MTT assay; assay type: functional
HOP-92 = experiment: Growth inhibition of human HOP-92 cells by MTT assay; assay type: functional
NCI-H226 = experiment: Growth inhibition of human NCI-H226 cells by MTT assay; assay type: functional
NCI-H23 = experiment: Growth inhibition of human NCI-H23 cells by MTT assay; assay type: functional
NCI-H322M = experiment: Growth inhibition of human NCI-H322M cells by MTT assay; assay type: functional
NCI-H460 = experiment: Growth inhibition of human NCI-H460 cells by MTT assay; assay type: functional
NCI-H522 = experiment: Growth inhibition of human NCI-H522 cells by MTT assay; assay type: functional
IGROV-1 = experiment: Growth inhibition of human IGROV-1 cells by MTT assay; assay type: functional, cell-based
OVCAR-3 = experiment: Growth inhibition of human OVCAR-3 cells by MTT assay; assay type: functional
OVCAR-4 = experiment: Growth inhibition of human OVCAR-4 cells by MTT assay; assay type: functional
OVCAR-5 = experiment: Growth inhibition of human OVCAR-5 cells by MTT assay; assay type: functional
OVCAR-8 = experiment: Growth inhibition of human OVCAR-8 cells by MTT assay; assay type: functional
NCI/ADR-RES = experiment: Growth inhibition of human NCI/ADR-RES cells by MTT assay; assay type: functional
SK-OV-3 = experiment: Growth inhibition of human SK-OV-3 cells by MTT assay; assay type: functional
DU-145 = experiment: Growth inhibition of human DU-145 cells by MTT assay; assay type: functional
PC-3 = experiment: Growth inhibition of human PC-3 cells by MTT assay; assay type: functional
786-0 = experiment: Growth inhibition of human 786-0 cells by MTT assay; assay type: functional
A498 = experiment: Growth inhibition of human A498 cells by MTT assay; assay type: functional
ACHN = experiment: Growth inhibition of human ACHN cells by MTT assay; assay type: functional
CAKI-1 = experiment: Growth inhibition of human CAKI-1 cells by MTT assay; assay type: functional
RXF 393 = experiment: Growth inhibition of human RXF 393 cells by MTT assay; assay type: functional
SN12C = experiment: Growth inhibition of human SN12C cells by MTT assay; assay type: functional
TK-10 = experiment: Growth inhibition of human TK-10 cells by MTT assay; assay type: functional
UO-31 = experiment: Growth inhibition of human UO-31 cells by MTT assay; assay type: functional
Tubulin (Homo sapiens) = Tubulin (Homo sapiens) (UniProt P68371+Q9H4B7+P0DPH7+P68366+Q13509+Q71U36+P04350+Q3ZCM7+P07437+P68363+Q9BQE3+Q6PEY2+Q13885+Q9BVA1+Q9BUF5); experiment: Inhibition of tubulin polymerization (unknown origin) at 10 uM; assay type: protein-complex assay

For `COc1cccc(C2=C(c3cn(C)c4ccccc34)COC2=O)c1`, the EC50 (U-937) was > 10 µM.
With `Cc1cccc(C2=C(c3cn(C)c4ccccc34)COC2=O)c1` the EC50 (U-937) was > 10 µM.
For `COc1ccc(C2=C(c3cn(C)c4ccccc34)COC2=O)cc1`, the EC50 (U-937) was > 10 µM.
`COc1cc(C2=C(c3cn(C)c4ccccc34)COC2=O)cc(OC)c1OC` showed an EC50 (U-937) of 0.6 µM, a GI50 (MCF7) of 28 nM and a GI50 (MDA-MB-231) of 339 nM. It also gave a GI50 (Hs-578T) of 158 nM, a GI50 (BT-549) of 62 nM and a GI50 (T47D) of 60 nM. The GI50 (MDA-MB-468) was 32 nM, the GI50 (COLO 205) was 65 nM and the GI50 (HCC 2998) was 219 nM. It also gave a GI50 (HCT-116) of 40 nM, a GI50 (HCT-15) of 43 nM and a GI50 (HT-29) of 38 nM. For the same molecule, the GI50 (KM12) was 65 nM, the GI50 (SW-620) was 45 nM and the GI50 (SF-268) was 813 nM. For the same molecule, the GI50 (SF-295) was 40 nM, the GI50 (SF-539) was 105 nM and the GI50 (SNB-19) was 158 nM. For the same molecule, the GI50 (SNB-75) was 44 nM, the GI50 (U-251) was 72 nM and the GI50 (HL-60) was 43 nM. The GI50 (K562) was 37 nM, the GI50 (MOLT-4) was 55 nM and the GI50 (SR) was 22 nM. It also gave a GI50 (CCRF-CEM) of 59 nM, a GI50 (RPMI-8226) of 110 nM and a GI50 (LOX IMVI) of 66 nM. The GI50 (Malme-3M) was 195 nM, the GI50 (M14) was 37 nM and the GI50 (MDA-MB-435) was 25 nM. For the same molecule, the GI50 (SK-MEL-2) was 229 nM, the GI50 (SK-MEL-28) was 427 nM and the GI50 (SK-MEL-5) was 78 nM. It also gave a GI50 (UACC-257) of 1620 nM, a GI50 (UACC-62) of 54 nM and a GI50 (A549) of 100 nM. The GI50 (EKVX) was 151 nM, the GI50 (HOP-62) was 123 nM and the GI50 (HOP-92) was 251 nM. It also gave a GI50 (NCI-H226) of 692 nM, a GI50 (NCI-H23) of 234 nM and a GI50 (NCI-H322M) of 407 nM. It also gave a GI50 (NCI-H460) of 54 nM, a GI50 (NCI-H522) of 49 nM and an IC50 (IGROV-1) of 76 nM. For the same molecule, the GI50 (OVCAR-3) was 36 nM, the GI50 (OVCAR-4) was 1260 nM and the GI50 (OVCAR-5) was 479 nM. For the same molecule, the GI50 (OVCAR-8) was 339 nM, the GI50 (NCI/ADR-RES) was 47 nM and the GI50 (SK-OV-3) was 269 nM. For the same molecule, the GI50 (DU-145) was 209 nM, the GI50 (PC-3) was 102 nM and the GI50 (786-0) was 316 nM. The GI50 (A498) was 17 nM, the GI50 (ACHN) was 537 nM and the GI50 (CAKI-1) was 52 nM. For the same molecule, the GI50 (RXF 393) was 132 nM, the GI50 (SN12C) was 282 nM and the GI50 (TK-10) was 933 nM. For the same molecule, the GI50 (UO-31) was 186 nM and the inhibition (Tubulin (Homo sapiens)) was “Active”.
In the case of `COc1ccc(OC)c(C2=C(c3cn(C)c4ccccc34)COC2=O)c1`, the EC50 (U-937) is reported as 3.2 µM.
`Cc1ccc(C2=C(c3cn(C)c4ccccc34)COC2=O)cc1` was tested, and the EC50 (U-937) was > 10 µM.
`COc1ccccc1C1=C(c2cn(C)c3ccccc23)COC1=O` was tested, and the EC50 (U-937) was > 10 µM.
`Cn1cc(C2=C(c3ccccc3)C(=O)OC2)c2ccccc21` was tested, and the EC50 (U-937) was > 10 µM.
With `COc1ccc(C2=C(c3cn(C)c4ccccc34)COC2=O)cc1OC` the EC50 (U-937) was > 10 µM.
